The results in this text go back to patent US20050209278A1, “Piperidinyl- and piperazinyl-sulfonylmethyl hydroxamic acids and their use as protease inhibitors” (priority 2002, published 2005).

Counter-ions that a name gives are not always drawn.

By Ki is commonly meant the equilibrium dissociation constant of an inhibitor or competing ligand from its target.

In one experiment the target is T1, MMP-13 (Homo sapiens, UniProt P45452).
T1 construct: made in house; host or cells: baculovirus / insect cells
Nature of the experiment: In vitro MMP inhibition, Ki determination (fluorogenic substrate II). In kind it is biochemical. To be noted: human recombinant enzyme; 4 μM substrate II; room temperature, 1 hr; read-out: MMP-13 Ki. The protocol:
(§1) Several hydroxamic acids and salts thereof were analyzed in in vitro assays to determine their ability to inhibit the MMP cleavage of peptide substrates. […] and IC50 constants were calculated from the assayed hydroxamic acid-MMP interactions.
(§2) Human recombinant MMP-1, MMP-2, MMP-9, MMP-13, and MMP-14 were used in this assay. All enzymes were prepared in Assignee's laboratories following usual laboratory procedures. Protocols for the preparation and use of these enzymes are available in the scientific literature. See, e.g., Enzyme Nomenclature (Academic Press, San Diego, Calif., 1992) (and the citations therein). See also, Freije et al., “Molecular cloning and expression of collagenase-3, a novel human matrix metalloproteinase produced by breast carcinomas,” J Biol. Chem., 269(24), 16766-16773 (1994).
The MMP-13 was obtained as a proenzyme from a full-length cDNA clone using baculovirus, as described by V. A. Luckow, “Insect Cell Expression Technology,” Protein Engineering: Principles and Practice, pp. 183-218 (edited by J. L. Cleland et al., Wiley-Liss, Inc., 1996). The expressed proenzyme was first purified over a heparin agarose column, and then over a chelating zinc chloride column. The proenzyme was then activated by APMA for use in the assay. […] See also, O'Reilly et al, Baculovirus Expression Vectors: A Laboratory Manual (W.H. Freeman and Co., New York, N.Y., 1992). See also, King et al., The Baculovirus Expression System: A Laboratory Guide (Chapman & Hall, London, England, 1992).
(§3) All MMPs were activated using 4-aminophenylmercuric acetate (“APMA”, Sigma Chemical, St. Louis, Mo.) or trypsin. MMP-9 also was activated using human recombinant MMP-3 (purified in Assignee's laboratory following standard cloning and purification techniques).
(§4) Two fluorogenic, methoxycoumarin-containing polypeptide substrates were used in the MMP inhibition assays: [drawing 427] Here, “Dpa” is 3-(2,4-dinitrophenyl)-L-2,3-diaminopropionyl group, and “MCA” is 7-methoxycoumarin-4-yl acetyl. Substrate (I) was purchased from Baychem (Redwood City, Calif.), and substrate II was prepared Assignee's laboratory. Substrate I was used in the IC50 determination assays, while substrate II was used in the Ki determination assays. In the absence of MMP inhibitory activity, either substrate is cleaved at the Gly-Leu peptide bond. This cleavage separates the highly fluorogenic peptide from the 2,4-dinitrophenyl quencher, thus resulting in increase of fluorescent intensity.
(§5) The stock solutions of the assayed hydroxamic acids (or salts thereof) were prepared in 1% dimethyl sulfoxide (DMSO). These stock solutions were diluted in Buffer A (100 mM Tris-HCl, 100 mM NaCl, 10 mM CaCl2, 0.05% polyoxyethylene 23 lauryl ether, pH 7.5) to obtain solutions with different hydroxamic acid concentrations, i.e., assay solutions with different concentrations of the assayed MMP inhibitory compound. The experiment controls contained the same amount of Buffer A/DMSO as the assayed sample, but contained no hydroxamic acid (or salt thereof).
(§6) The assays from which the Ki determinations were made were performed as follows. The assayed hydroxamic acid samples were incubated in separate wells of untreated white polystyrene plates (Nunc Nalgene International, Rochester, N.Y.), and analyzed on a Tecan SpectraFlour Plus plate reader. The excitation wavelength was 330 nm, and the emission wavelength—420 nm. All samples (assayed hydroxamic acids and controls) were incubated in separate plate wells at room temperature for 1 hr in the presence of 4 μM of MMP substrate (II). In the absence of MMP inhibitory activity, substrate II was cleaved at the Gly-Leu bond resulting in an increase of relative fluorescence. Inhibition was observed as a reduced rate of this increase in relative fluorescence. The various hydroxamic acids were analyzed using a single low enzyme concentration with a single substrate concentration fixed at or below the Km.

The target in another experiment is T2, MMP-2 (Homo sapiens, UniProt P08253).
T2 construct: made in house; host or cells: MMP-2-transfected p2AHT2 cells
T2 sequence (P08253 110-660): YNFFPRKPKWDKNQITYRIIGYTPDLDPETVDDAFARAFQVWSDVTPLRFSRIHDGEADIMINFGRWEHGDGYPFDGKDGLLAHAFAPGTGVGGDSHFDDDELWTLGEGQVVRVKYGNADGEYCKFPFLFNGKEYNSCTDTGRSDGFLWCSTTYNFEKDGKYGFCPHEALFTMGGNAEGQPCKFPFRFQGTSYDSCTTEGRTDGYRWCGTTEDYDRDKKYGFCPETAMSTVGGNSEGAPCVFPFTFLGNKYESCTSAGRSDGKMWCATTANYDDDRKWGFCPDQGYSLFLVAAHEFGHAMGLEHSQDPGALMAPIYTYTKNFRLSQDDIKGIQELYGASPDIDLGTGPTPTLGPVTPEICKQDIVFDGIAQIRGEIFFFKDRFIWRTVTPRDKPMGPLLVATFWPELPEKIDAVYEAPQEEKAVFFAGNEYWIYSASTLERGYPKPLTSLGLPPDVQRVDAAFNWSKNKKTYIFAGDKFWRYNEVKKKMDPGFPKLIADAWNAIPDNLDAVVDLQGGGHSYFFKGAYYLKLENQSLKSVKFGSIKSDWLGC
The description is as above. The class given is biochemical. To be noted: human recombinant enzyme; 4 μM substrate II; room temperature, 1 hr; read-out: MMP-2 Ki. How it is done:
as §1, §2
The MMP-2 proenzyme was purified by gelatin Sepharose chromatography from MMP-2-transfected p2AHT2 cells provided by Dr. Gregory Goldberg of Washington University (St. Louis, Mo.).
as §3, §4, §5
as §6, with “Km. This protocol is a modification of method by Knight et al., FEBS Lett., 296(3), 263-266 (1992). Apparent inhibitory constants were determined by non-linear regression of reaction velocity as a function of inhibitor and enzyme concentration using Morrison's equation, as described by Kuzmic, Anal. Biochem. 286, 45-50 (2000). […] Since the substrate concentration was chosen to be at or below the Km, the apparent Ki's from this analysis were reported as Ki's without correction for the influence of substrate.” for “Km.”

For the compound `CCCCCc1ccc(C2CCN(S(=O)(=O)C3(C(=O)NO)CCN(CCOC)CC3)CC2)cc1` [Example 15, N-hydroxy-1-(2-methoxyethyl)-4-{[4-(4-pentylpheyl)piperidin-1-yl]sulfonyl}piperidine-4-carboxamide Hydrochloride], the Ki is 0.23 nM on MMP-13 and 0.89 nM at MMP-2.

`CCCCOc1ccc(C2CCN(S(=O)(=O)C3(C(=O)NO)CCN(CCOC)CC3)CC2)cc1` [Example 16, 4-{[4-(4-butoxyphenyl)piperidin-1-yl]sulfonyl}-N-hydroxy-1-(2-methoxyethyl)piperidine-4-carboxamide Hydrochloride]: the results for the Ki on MMP-13 and on MMP-2 were 0.34 nM and 1.24 nM, respectively.

For `O=C(NO)C1(S(=O)(=O)N2CCN(c3ccc(CCC(F)(F)C(F)(F)F)cc3)CC2)CCOCC1` [Example 17, N-hydroxy-4-({4-[4-(3,3,4,4,4-pentafluorobutyl)phenyl]piperazin-1-yl}sulfonyl)tetrahydro-2H-pyran-4-carboxamide Hydrochloride], the Ki at MMP-13 stood at 0.328 nM; at MMP-2 it was 0.418 nM.

Take `O=C(NO)C1(S(=O)(=O)N2CCC(c3ccc(CCC(F)(F)C(F)(F)F)cc3)CC2)CCOCC1` [Example 18, N-hydroxy-4-({4-[4-(3,3,4,4,4-pentafluorobutyl)phenyl]piperidin-1-yl}sulfonyl)tetrahydro-2H-pyran-4-carboxamide]: the Ki at MMP-13 is 0.444 nM; on MMP-2, 0.565 nM.

On to `CCCCc1ccc(C2CCN(S(=O)(=O)C3(C(=O)NO)CCOCC3)CC2)s1` [Example 19, 4-{[4-(5-butylthien-2-yl)piperidin-1-yl]sulfonyl}-N-hydroxytetrahydro-2H-pyran-4-carboxamide], for which the Ki at MMP-13 worked out at 5.47 nM; on MMP-2, 2.06 nM.

With `COCCN1CCC(C(=O)NO)(S(=O)(=O)N2CCC(c3ccc(OCCCC(F)(F)F)cc3)CC2)CC1` [Example 20, N-hydroxy-1-(2-methoxyethyl)-4-({4-[4-(4,4,4-trifluorobutoxy)phenyl]piperidin-1-yl}sulfonyl)piperidine-4-carboxamide Hydrochloride], the inhibition constant (Ki) came out at 0.15 nM on MMP-13 and 0.83 nM on MMP-2.

Consider `CCCCCc1ccc(N2CCN(S(=O)(=O)C3(C(=O)NO)CCN(C(=O)C(F)(F)F)CC3)CC2)cc1` [Example 21, N-hydroxy-4-{[4-(4-pentylphenyl)piperazin-1-yl]sulfonyl}-1-(trifluoroacetyl)piperidine-4-carboxamide Hydrochloride], for which the Ki at MMP-13 stood at 6.17 nM; at MMP-2, 3.82 nM.

For the compound `CCCCCc1ccc(N2CCN(S(=O)(=O)C3(C(=O)NO)CCN(CC)CC3)CC2)cc1F` [Example 22, 1-ethyl-4-{[4-(3-fluoro-4-pentylphenyl)piperazin-1-yl]sulfonyl}-N-hydroxypiperidine-4-carboxamine Hydrochloride], the Ki at MMP-13 came out at 2.78 nM; on MMP-2 it was 3.19 nM.

For the compound `CCCCCc1ccc(N2CCN(S(=O)(=O)C3(C(=O)NO)CCOCC3)CC2)c(F)c1` [Example 23, 4-{[4-(2-fluoro-4-pentylphenyl)piperazin-1-yl]sulfonyl}-N-hydroxytetrahydro-2H-pyran-4-carboxamide Hydrochloride], the Ki at MMP-13 is 4.17 nM; at MMP-2, 8.25 nM.

Consider `CCCCc1ccc(C2CCN(S(=O)(=O)C3(C(=O)NO)CCN(C4CC4)CC3)CC2)nc1` [Example 24, 4-{[4-(5-butylpyridin-2-yl)piperidin-1-yl]sulfonyl}-1-cyclopropyl-N-hydroxypiperidine-4-carboxamide Hydrochloride], for which the results for the inhibition constant (Ki) on MMP-13 and at MMP-2 were 0.54 nM and 0.91 nM, respectively.

`O=C(NO)C1(S(=O)(=O)N2CCC(c3ccc(OCC(F)(F)F)cc3)CC2)CCN(C2CC2)CC1` [Example 25, 1-cyclopropyl-N-hydroxy-4-({4-[4-(2,2,2-trifluoroethoxy)phenyl]piperidin-1-yl}sulfonyl)piperidine-4-carboxamide Hydrochloride]: the Ki came out at 0.97 nM at MMP-13 and 1.18 nM at MMP-2.
